{"source": "patent EP0150892A2", "about": "“Substituted alkylidene imidazoles” (G.D. Searle & Co., priority 1984, dated 1985)", "molecular_target": "T1, thromboxane synthetase (Cavia porcellus, UniProt H0UT36)", "T1 construct": "from tissue; host or cells: citrated whole blood (platelets) of albino male Dunkin-Hartley guinea pigs (printed 'Dunkin-Bartley') dosed orally", "T1 sequence (H0UT36 1-533)": "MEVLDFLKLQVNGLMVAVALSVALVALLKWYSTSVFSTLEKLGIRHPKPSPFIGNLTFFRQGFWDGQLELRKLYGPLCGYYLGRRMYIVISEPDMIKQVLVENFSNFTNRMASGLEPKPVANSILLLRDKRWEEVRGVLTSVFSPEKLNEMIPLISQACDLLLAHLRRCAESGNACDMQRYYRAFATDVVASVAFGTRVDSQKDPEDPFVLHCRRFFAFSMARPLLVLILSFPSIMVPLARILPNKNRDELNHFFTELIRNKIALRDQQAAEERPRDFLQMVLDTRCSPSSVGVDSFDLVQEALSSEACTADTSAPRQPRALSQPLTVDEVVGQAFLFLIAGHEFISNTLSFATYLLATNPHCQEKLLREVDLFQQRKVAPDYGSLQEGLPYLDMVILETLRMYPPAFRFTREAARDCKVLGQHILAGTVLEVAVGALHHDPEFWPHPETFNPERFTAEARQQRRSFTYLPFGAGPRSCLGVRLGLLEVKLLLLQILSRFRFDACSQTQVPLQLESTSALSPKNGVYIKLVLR", "assay": "Whole blood aggregation and thromboxane formation in vivo: guinea pig (plasma TXB2 by radioimmunoassay after oral dosing)", "settings": "plasma TXB2 in collagen-stimulated citrated whole blood of guinea pigs dosed orally, versus vehicle controls; normalized to platelet count; dose not given"}
{"compound": "CCOC(=O)c1ccc(/C=C(/COCc2ccc(OC)cc2)Cn2ccnc2)c(OC)c1", "note": "(single isomer, unassigned) [11 (E-isomer), ethyl 4-[3-(1H-imidazol-1-yl)-2-[[(4-methoxyphenyl]methoxy]methyl]-lE-propenyl]-3-methoxybenzoate]", "values": [{"measurement": "% INHIBITION", "result": -36.0, "unit": "%"}]}
